Measurements as given in US20120070511A1, “MITOCHONDRIAL INHIBITORS AND USES THEREOF” (priority 2009, published 2012).
Read-outs that look alike come from different tables or passages of the source.

Legend:
Format in all cases: cell-based
MM.1S cells = test: Reversal of CCCP induced toxicity (trypan blue exclusion); conditions: 10 μM BAPTA-AM or 50 μM of Z-VAD
Method: A) Reversal of CCCP induced toxicity by either 10 μM BAPTA-AM or 50 μM of Z-VAD was investigated using trypan blue exclusion assays. The bars represent the average of triplicate samples +SD. B) ATP levels were assayed following 6 h of treatment with indicated concentrations of CCCP. The bars represent the average of triplicate samples +SD. C) Induction of UPR, activation of AMPK pathway and cleavage of caspase 3 was analyzed by western blots following 24 h treatment with indicated concentrations of CCCP in MM.1S and REH cell lines. β-Actin was used as a loading control. D) The quantification of phosphorylated AMPK and total AMPK bands in the previous panel was done using a Bio-Rad gel reader which employs Quality I software. The bars represent the fold increase in the ratio of p-AMPK/AMPK in treated versus untreated samples from three independent experiments +SD.
(§1) Cytotoxicity assay: Cells were incubated for 24 h at 37° C. in 5% CO2 at which time drug treatments began and continued for 24 h. At this time cells were transferred to a tube followed by centrifugation at 400 g for 5 min. The pellets were resuspended in 1 ml of Hanks solution and analyzed by Vi-Cell (Beckman Coulter, Fullerton, Calif., USA) cell viability analyzer.

[1] = test system: multiple myeloma cell lines (MM.1S, 8226, KMS-11, U266)
Method: (§2) Cytotoxicity assay: Cells were incubated for 24 hr at 37° C. in 5% CO2 at which time drug treatments began and continued for 24 hr. At this time attached cells were trypsinized and combined with their respective culture media while suspension cells were directly transferred to a tube followed by centrifugation at 400 g for 5 min. The pellets were resuspended in 1 ml of Hanks solution and analyzed by Vi-Cell (Beckman Coulter, Fullerton, Calif.) cell viability analyzer.

[2] = test system: non-myeloma cell lines (NALM6, 143B, MDA-MB-435, 1420)
Method: as §2

[3] = test system: MM cell lines (MM.1S, 8226, KMS-11)
Method: as §1

[4] = test system: B-cell leukemia lines (NALM6, REH)
Method: as §1

[5] = test system: CHOP/GADD153 and cleaved caspase 3 in MM.1S, 8226, KMS-11; test: Western blot of CHOP/GADD153 and cleaved caspase 3 in 3 MM cell lines; conditions: concentrations of FIG. 13
Method: . Induction of UPR-mediated apoptosis following treatment of 3 MM cell lines with four different mitochondrial inhibitors for various time points was assayed by western blot analysis of CHOP and cleaved caspase 3.
Western blot analysis: Western blots were performed. Membranes were probed with monoclonal rabbit anti-GRP94, anti GRP-78, anti-PDI, anti-CHOP/GADD153, anti-cleaved caspase 3 (Cell Signaling, Danvers, Mass., USA) and monoclonal mouse anti-β-actin (Sigma, St. Louis, Mo., USA).

[6] = test system: CHOP/GADD153 and cleaved caspase 3 in 4 MM cell lines; test: Western blot of CHOP/GADD153 and cleaved caspase 3 (UPR-mediated apoptosis); conditions: all 4 MM cell lines
Method: Western Blot analysis: Cells are plated at 10^4 cell/cm^−2 for attached cells and 3×10^5/ml for suspension cells and grown under drug treatment for the indicated times. At the end of the treatment period, cells are collected and lysed with 1% SDS in 80 mM Tris-HCL (ph 7.4) buffer supplemented with a proteinase inhibitor cocktail. DNA is fragmented by sonication and protein concentrations are measured by microBCA protein assay kit (Pierce, Rockford, Ill.). Samples are mixed with 3× Laemmli sample buffer (Cell Signaling, Danvers, Mass.) and 40 μg of protein was run on a 12% SDS-polyacrylamide gel. Gels are transferred to nitrocellulose membranes (Amersham, Piscataway, N.J.) and probed with monoclonal rabbit anti-GRP94, anti GRP-78, anti-PDI, anti-CHOP/GADD153, anti-cleaved caspase 3 (Cell Signaling, Danvers, Mass.) and monoclonal mouse anti-β-actin (Sigma, St. Louis, Mo.). Following probing, membranes are washed and incubated with HRP-conjugated secondary antibody (Invitrogen, Carlsbad, Calif.). Following addition of 1:3 diluted femto-chemiluminescent substrate (Pierce, Rockford, Ill.) membranes were exposed to blue autoradiographic film (ISC bioexpress, Kaysville, Utah). Where indicated, membranes were stripped with Stripping Buffer (Pierce, Rockford, Ill.) and reprobed with anti-β-actin (Sigma-Aldrich, St. Louis, Mo.) primary antibody. When needed, the blots were quantified using Bio-Rad gel reader which employs Quality I software (Bio-Rad, Hercules, Calif.).

[7] = test system: non-myeloma cell lines (NALM6, MDA-MB-435, 143B, 1420); test: Measurement of cytoplasmic calcium (indo-1 fluorescence ratio 400/500 nm); conditions: for increase in cytoplasmic Ca2+ after mitochondrial inhibitor: non-myeloma cell lines (oligomycin: all cell lines)
Method: (§3) Measurement of cytoplasmic calcium: Cytoplasmic Ca^2+ concentration was estimated by using the cell permeant fluorochrome indo-1-AM (Invitrogen, Carlsbad, Calif.). When excited at 355 nm, the maximum emission of indo-1 shifts from 500 nm to 400 nm following its binding to free Ca^2+. Thus, the ratio of reading at 400 nm and 500 nm correlates with concentration of cytoplasmic Ca^2+. Experiments were performed in cells loaded with indo-1 by incubating them with 2.5 μM of this fluorochrome at 37° C. for 45 min. Cells were then centrifuged at 400 g for 5 min and resuspended in their growth medium followed by distribution of 100 μl of aliquots into 96 well optical bottom plates (Nalge Nunc, Int., Rochester, N.Y.) and fluorescence was measured by Spectra Max Gemini Plus (Molecular Devices, Sunnyvale, Calif.). The average of triplicates from untreated samples was used as control reading and increase in cytoplasmic Ca^2+ was calculated as percent increase from control samples.

[8] = test system: MM cell lines (MM1.S, 8226, KMS-11, U266); test: as above; conditions: for effect on mitochondrial Ca2+ uptake / cytoplasmic Ca2+ after mitochondrial inhibitor: MM cell lines; for effect on mitochondrial Ca2+ uptake: estimated from cytoplasmic Ca2+
Method: as §3

[9] = test system: MM (MM.1S, 8226, KMS-11) and B-cell leukemia (NALM6, REH) cell lines; test: ER Ca2+ leak: cytoplasmic Ca2+ (indo-1) after thapsigargine, Example 2
Method: Measurement of cytoplasmic and mitochondrial calcium: Cytoplasmic Ca^2+ concentration was estimated by using the cell permeant ratiometric fluorochrome indo-1-AM (Invitrogen, Carlsbad, Calif., USA) while mitochondrial Ca^2+ was measured by X-Rhod-1-AM (Invitrogen, Carlsbad, Calif., USA). In the latter assay, to normalize mitochondrial Ca^2+ signal to mitochondria number, Mitotracker Green (Invitrogen, Carlsbad, Calif., USA) fluorescence was simultaneously analyzed. Experiments were performed in cells loaded with either 2.5 μM of indo-1 or 5 μM X-rhod-1 and 250 nM of Mitotracker at 37° C. for 45 min. Cells were, then, centrifuged at 400 g for 5 min and resuspended in their growth medium followed by distribution of 100 μl of aliquots into 96 well optical bottom plates (Nalge Nunc, Int., Rochester, N.Y., USA) and fluorescence was measured by Spectra Max Gemini Plus (Molecular Devices, Sunnyvale, Calif., USA). The average of triplicates from untreated samples was used as control reading and increase in cytoplasmic or mitochondrial Ca^2+ was calculated as percent increase from control samples.
Due to the high levels of glycoprotein production in MM cells, it was investigated whether there is a greater ER Ca^2+ leak in these cells as compared to Bcells. As shown in previous reports, ER Ca^2+ leak can be assayed indirectly by measuring cytoplasmic Ca^2+ concentration following inhibition of SERCA by thapsigargine.

[10] = 24 h, at doses toxic to MM cell lines
[11] = 24 h, at concentrations toxic to MM cell lines

Molecule | cytotoxicity (cell death) [1] | cytotoxicity [2, 10] | cytotoxicity (cell death) [3] | cytotoxicity [4, 11] | CHOP/GADD153 expression relative to CCCP [5] | treatment time at which CHOP/GADD153 expression is noted [6] | increase in cytoplasmic Ca2+ after mitochondrial inhibitor [7] | other results
Z-VAD |  |  |  |  |  |  |  | reversal of CCCP induced toxicity (MM.1S cells): can reverse the majority of CCCP toxicity
CC(C)OC(=O)C(C)(C)Oc1ccc(C(=O)c2ccc(Cl)cc2)cc1 [fenofibrate] | significant toxicity | not toxic to non-myeloma cells | significant toxicity | less toxic to B-cell leukemia lines |  |  |  | 
CC[C@H]1/C=C/C=C/C[C@@H](C)[C@H](O)[C@@](C)(O)C(=O)[C@@H](C)[C@H](O)[C@@H](C)C(=O)[C@@H](C)[C@H](O)[C@@H](C)/C=C/C(=O)O[C@@H]2[C@H](C)[C@H](CC1)O[C@]1(CC[C@H](C)[C@H](C[C@@H](C)O)O1)[C@H]2C [oligomycin] |  | little or no toxicity |  | little or no toxicity | comparable to that induced by CCCP | 6 h | minimal or no effect | cytotoxic potency compared to the other mitochondrial inhibitors ([1]; 24 h, MM cells): less toxic potency in MM cells when compared to other inhibitors; cytotoxicity (cell death) ([1]; 24 h treatment, all 4 MM cell lines): significant cell death; cytotoxicity (cell death) ([3]; 24 h, all 3 MM cell lines): significant cell death; effect on mitochondrial Ca2+ uptake [8]: little or no effect
Cc1c(C)c2c(c(C)c1O)CCC(C)(COc1ccc(CC3SC(=O)NC3=O)cc1)O2 (stereo not drawn) [troglitazone] | significant toxicity | not toxic to non-myeloma cells | significant toxicity | less toxic to B-cell leukemia lines |  |  |  | 
antimycin A | significant cell death |  | significant cell death |  | comparable to that induced by CCCP | 6 h | not seen in non-myeloma cell lines except for NALM6 | cytotoxic potency compared to the other mitochondrial inhibitors [1]: less toxic than these two mitochondrial inhibitors; cytotoxicity [2]: little or no toxicity; cytotoxicity [4]: little or no toxicity; cytoplasmic Ca2+ after mitochondrial inhibitor [8]: immediate increase in cytoplasmic Ca^2+
C/C=C(/C)C(=O)O[C@H]1C(C)=C2[C@H]([C@@H]1OC(=O)CCCCCCC)[C@@](C)(OC(C)=O)C[C@H](OC(=O)CCC)[C@@]1(O)[C@H]2OC(=O)[C@@]1(C)O [thapsigargine] | sensitive | resistant | sensitive | resistant |  |  |  | order of sensitivity among MM cell lines ([1]; 24 h treatment): MM.1S>8226>KMS-11>U266; order of ER Ca2+ leak after thapsigargine ([9]; MM cell lines): MM1.S>8226>KMS-11; cytoplasmic Ca2+ concentration at new equilibrium ([9]; after 30 min, MM versus B-cell leukemias): all 3 MM cell lines had significantly greater cytoplasmic Ca^2+ concentration than the 2 B-cell leukemias; cytoplasmic Ca2+ concentration ([9]; within 5 min after addition, all five cell lines): significantly increases; cytoplasmic Ca2+ after thapsigargine ([7]; 143B and 1420, 30 min. after addition): significantly increases; cytoplasmic Ca2+ after thapsigargine ([7]; NALM6 and MDA-MB-435): little or no change; cytoplasmic Ca2+ increase after thapsigargine in 8226 ([8]; 8226 compared to KMS-11 or U266): increase less than that observed in KMS-11 or U266 cell lines; lag before increase in cytoplasmic Ca2+ ([8]; U266 (printed U226) cell line): ~20 min; cytoplasmic Ca2+ concentration after thapsigargine ([8]; immediately after addition, MM1.S, 8226 and KMS-11): significantly increases
CC(=O)OCOC(=O)CN(CC(=O)OCOC(C)=O)c1ccccc1OCCOc1ccccc1N(CC(=O)OCOC(C)=O)CC(=O)OCOC(C)=O [BAPTA-AM] |  |  |  |  |  |  |  | reversal of CCCP induced toxicity (MM.1S cells): does not reverse the toxicity of CCCP
C=C(C)[C@H]1Cc2c(ccc3c2O[C@@H]2COc4cc(OC)c(OC)cc4[C@@H]2C3=O)O1 [rotenone] | significant cell death |  | significant cell death |  | less CHOP/GADD153 expression than CCCP | 6 h | not seen in non-myeloma cell lines except for NALM6 | cytotoxic potency compared to the other mitochondrial inhibitors [1]: equipotency in inducing cytotoxicity in MM cells; cytotoxicity [2]: little or no toxicity; cytotoxicity [4]: little or no toxicity; cytoplasmic Ca2+ after mitochondrial inhibitor [8]: immediate increase in cytoplasmic Ca^2+; effect on mitochondrial Ca2+ uptake [8]: equally inhibit mitochondrial Ca^2+ uptake
